Where two headings read alike, the source gives them in different places.
What was measured:
Type in all cases: cell-based
E. coli = assay: MIC, CLSI broth microdilution in CAMHB with 0-10% pulmonary surfactant (avibactam fixed at 4 μg/mL in combination); details: Escherichia coli, E. coli ARC3690 (CTX-M-15, SHV-12)
Procedure: (§1) The bacterial strains used in this testing were part of the microbiological culture collection housed at AstraZeneca R&D Boston (AstraZeneca Research Collection, designated ARC). The panel of bacterial isolates used for this testing was comprised of five CLSI QC reference strains and the remainder were either recent clinical isolates expressing β-lactamases or isolates from the primary bacterial screening panels.
(§2) MIC values were determined using the CLSI broth microdilution methodology with slight variation. Stock compound mother plates were prepared and used to spot 2 μL aliquots of serial 2-fold drug dilutions to columns 1-11 of 96-well daughter plates using a Perkin-Elmer MiniTrak™ MultiPosition dispenser. […] An inoculum volume of 100 μL (5×10E^5 CFU/mL) in CAMHB containing 0, 1, 2.5, 5, or 10% pulmonary surfactant was added using a multichannel Finnpipette® to each well of the 96-well plate.
(§3) The minimum inhibitory concentration (MIC) values against each organism/drug combination were determined using broth microdilution methodology according to CLSI guidelines. The recommended reference bacterial strains for each test group and reference compounds were incorporated into each test. For Gram-negatives, the reference bacterial strains were Escherichia coli ATCC 25922, E. coli ATCC 35218, Klebsiella pneumoniae ATCC 700603, and Pseudomonas aeruginosa ATCC 27853. Staphylococcus aureus ATCC 29213 was the reference bacterial strain for the Gram-positives.
(§4) MIC values for individual isolates were read visually. The MICs for each compound or combination in pulmonary surfactant was compared to the compound or combination tested in CAMHB alone.

K. pneumoniae [1] = assay: as above; details: Klebsiella pneumoniae
Procedure: as §1, §2, §3, §4

[2] = tested on: Gram-positive or Gram-negative bacterial strains; assay: MIC in pulmonary surfactant compared with CAMHB alone, whole strain panel; details: up to 10% pulmonary surfactant vs CAMHB alone; any strain tested
Procedure: as §1, §2
The minimum inhibitory concentration (MIC) values against each organism/drug combination were determined using broth microdilution methodology according to CLSI guidelines. The recommended reference bacterial strains for each test group and reference compounds were incorporated into each test. […]
MIC values for individual isolates were read visually. […]

P. aeruginosa = assay: Initial MIC, microbroth dilution (CLSI), avibactam 4 mg/L; details: Pseudomonas aeruginosa
Procedure: (§5) All MIC determinations including those performed in the checkerboard assay were done in cation-adjusted Mueller-Hinton broth (purchased from Becton Dickinson, Oxford UK).
(§6) Initial MIC data were determined by microbroth dilution methods as recommended by CLSI (2012b). Checkerboards were made in accordance with the method given by Pillai et. al., ? Antimicrobial Combinations in Antibiotics, LABORATORY MEDICINE (Lorian Ed., 3rd Ed. (2003)) p. 365-440 as per standard microbroth dilution tests but with agents in combination. […] A final avibactam concentration of 4 mg/L was used throughout the study. Antibacterial agents were combined into microtitre plates using the Evolution III liquid handling system.

K. pneumoniae [3] = assay: as above; details: Klebsiella pneumoniae
Procedure: as §5, §6

Which MIC (E. coli; surfactant 1%) does the source give for `CC(C)(O/N=C(\C(=O)N[C@@H]1C(=O)N2C(C(=O)[O-])=C(C[n+]3ccccc3)CS[C@H]12)c1csc(N)n1)C(=O)O` [ceftazidime, (6R,7R)-7-[[(2Z)-2-(2-amino-1,3-thiazol-4-yl)-2-(1-hydroxy-2-methyl-1-oxopropan-2-yl)oxyiminoacetyl]amino]-8-oxo-3-(pyridin-1-ium-1-ylmethyl)-5-thia-1-azabicyclo[4.2.0]oct-2-ene-2-carboxylate pentahydrate] here?
The MIC was 64 µg/mL.

What about the MIC (E. coli; surfactant 2.5%) of the same compound?
The MIC was 64 µg/mL.

What about the MIC (E. coli; surfactant 5%) of the same compound?
The MIC was 64 µg/mL.

And the MIC (E. coli; surfactant 10%)?
The MIC was 64 µg/mL.

What about the MIC (K. pneumoniae [1]; ATCC700603, K. pneumoniae ARC561 (ATCC 700603; SHV-18, OXA-2, OKP-6), surfactant 0%) of the same compound?
The MIC was 32 µg/mL.

What about the MIC (K. pneumoniae [1]; ATCC700603, K. pneumoniae ARC561 (ATCC 700603; SHV-18, OXA-2, OKP-6), surfactant 1%) of the same compound?
The MIC was 32 µg/mL.

What about the MIC (K. pneumoniae [1]; ATCC700603, K. pneumoniae ARC561 (ATCC 700603; SHV-18, OXA-2, OKP-6), surfactant 2.5%) of the same compound?
The MIC was 32 µg/mL.

What about the MIC (K. pneumoniae [1]; ATCC700603, K. pneumoniae ARC561 (ATCC 700603; SHV-18, OXA-2, OKP-6), surfactant 5%) of the same compound?
The MIC was 32 µg/mL.

And the MIC (K. pneumoniae [1]; ATCC700603, K. pneumoniae ARC561 (ATCC 700603; SHV-18, OXA-2, OKP-6), surfactant 10%)?
Its MIC is 32 µg/mL.

And the MIC (K. pneumoniae [1]; K. pneumoniae ARC1865 (Primary Screening Panel), surfactant 1%)?
Its MIC is 0.25 µg/mL.

What about the MIC (K. pneumoniae [1]; K. pneumoniae ARC1865 (Primary Screening Panel), surfactant 2.5%) of the same compound?
Its MIC is 0.5 µg/mL.

And the MIC (K. pneumoniae [1]; K. pneumoniae ARC1865 (Primary Screening Panel), surfactant 5%)?
Its MIC is 0.5 µg/mL.

What about the MIC (K. pneumoniae [1]; K. pneumoniae ARC1865 (Primary Screening Panel), surfactant 10%) of the same compound?
Its MIC is 0.5 µg/mL.

What about the MIC (K. pneumoniae [1]; K. pneumoniae ARC1865 (Primary Screening Panel), surfactant concentration cell empty) of the same compound?
The MIC was 0.5 µg/mL.

What about the MIC (K. pneumoniae [1]; K. pneumoniae ARC2528 (Clinical isolate), surfactant 0%) of the same compound?
Its MIC is 1 µg/mL.

And the MIC (K. pneumoniae [1]; K. pneumoniae ARC2528 (Clinical isolate), surfactant 1%)?
The MIC was 2 µg/mL.

And the MIC (K. pneumoniae [1]; K. pneumoniae ARC2528 (Clinical isolate), surfactant 2.5%)?
The MIC was 1 µg/mL.

What about the MIC (K. pneumoniae [1]; K. pneumoniae ARC2528 (Clinical isolate), surfactant 5%) of the same compound?
The MIC was 1 µg/mL.

What about the MIC (K. pneumoniae [1]; K. pneumoniae ARC2528 (Clinical isolate), surfactant 10%) of the same compound?
Its MIC is 1 µg/mL.

What about the MIC (K. pneumoniae [1]; K. pneumoniae ARC2929 (KPC-3), surfactant 0%) of the same compound?
Its MIC is greater than 64 µg/mL.

And the MIC (K. pneumoniae [1]; K. pneumoniae ARC2929 (KPC-3), surfactant 1%)?
Its MIC is greater than 64 µg/mL.

What about the MIC (K. pneumoniae [1]; K. pneumoniae ARC2929 (KPC-3), surfactant 2.5%) of the same compound?
Its MIC is greater than 64 µg/mL.

What about the MIC (K. pneumoniae [1]; K. pneumoniae ARC2929 (KPC-3), surfactant 5%) of the same compound?
Its MIC is greater than 64 µg/mL.

And the MIC (K. pneumoniae [1]; K. pneumoniae ARC2929 (KPC-3), surfactant 10%)?
Its MIC is greater than 64 µg/mL.

What about the MIC (K. pneumoniae [1]; K. pneumoniae ARC2945 (KPC-2, SHV-11, TEM-1, OXA-9), surfactant 0%) of the same compound?
Its MIC is 64 µg/mL.

What about the MIC (K. pneumoniae [1]; K. pneumoniae ARC2945 (KPC-2, SHV-11, TEM-1, OXA-9), surfactant 1%) of the same compound?
Its MIC is 64 µg/mL.

What about the MIC (K. pneumoniae [1]; K. pneumoniae ARC2945 (KPC-2, SHV-11, TEM-1, OXA-9), surfactant 2.5%) of the same compound?
The MIC was 64 µg/mL.

And the MIC (K. pneumoniae [1]; K. pneumoniae ARC2945 (KPC-2, SHV-11, TEM-1, OXA-9), surfactant 5%)?
The MIC was 64 µg/mL.

And the MIC (K. pneumoniae [1]; K. pneumoniae ARC2945 (KPC-2, SHV-11, TEM-1, OXA-9), surfactant 10%)?
The MIC was 64 µg/mL.

What about the MIC (K. pneumoniae [1]; K. pneumoniae ARC3713 (CTX-M-15, OXA-1/30, SHV-5, TEM-1), surfactant 0%) of the same compound?
The MIC was greater than 64 µg/mL.

What about the MIC (K. pneumoniae [1]; K. pneumoniae ARC3713 (CTX-M-15, OXA-1/30, SHV-5, TEM-1), surfactant 1%) of the same compound?
The MIC was greater than 64 µg/mL.

And the MIC (K. pneumoniae [1]; K. pneumoniae ARC3713 (CTX-M-15, OXA-1/30, SHV-5, TEM-1), surfactant 2.5%)?
Its MIC is greater than 64 µg/mL.

What about the MIC (K. pneumoniae [1]; K. pneumoniae ARC3713 (CTX-M-15, OXA-1/30, SHV-5, TEM-1), surfactant 5%) of the same compound?
Its MIC is greater than 64 µg/mL.

And the MIC (K. pneumoniae [1]; K. pneumoniae ARC3713 (CTX-M-15, OXA-1/30, SHV-5, TEM-1), surfactant 10%)?
Its MIC is greater than 64 µg/mL.

What about the “MIC increase in pulmonary surfactant” value [2] of the same compound?
The value was “no MIC increases were observed”.

And the MIC (P. aeruginosa; isolate 16 P. aeruginosa Basal MICs, read-out: MIC)?
Its MIC is 1 µg/mL.

What about the MIC (P. aeruginosa; isolate 17 P. aeruginosa Derepressed AmpC, read-out: MIC) of the same compound?
Its MIC is 8 µg/mL.

What about the MIC (P. aeruginosa; isolate 18 P. aeruginosa Derepressed AmpC, read-out: MIC) of the same compound?
Its MIC is 64 µg/mL.

And the MIC (P. aeruginosa; isolate 19 P. aeruginosa PER, read-out: MIC)?
Its MIC is 128 µg/mL.

What about the MIC (P. aeruginosa; isolate 20 P. aeruginosa KPC-2) of the same compound?
The MIC was 128 µg/mL.

What about the MIC (P. aeruginosa; isolate 21 P. aeruginosa KPC-2, read-out: MIC) of the same compound?
Its MIC is 64 µg/mL.

And the MIC (K. pneumoniae [3]; isolate 9 K. pneumoniae Basal MICs, read-out: MIC)?
Its MIC is 0.12 µg/mL.

And the MIC (K. pneumoniae [3]; isolate 10 K. pneumoniae TEM-4, read-out: MIC)?
The MIC was 32 µg/mL.

What about the MIC (K. pneumoniae [3]; isolate 11 K. pneumoniae CTX-M-15, read-out: MIC) of the same compound?
Its MIC is 32 µg/mL.

And the MIC (K. pneumoniae [3]; isolate 12 K. pneumoniae SHV-12, read-out: MIC)?
Its MIC is 64 µg/mL.

What about the MIC (K. pneumoniae [3]; isolate 13 K. pneumoniae KPC-3) of the same compound?
The MIC was 128 µg/mL.

What about the MIC (K. pneumoniae [3]; isolate 14 K. pneumoniae KPC-3, read-out: MIC) of the same compound?
Its MIC is 16 µg/mL.

And the MIC (K. pneumoniae [3]; isolate 15 K. pneumoniae KPC-2, read-out: MIC)?
The MIC was 64 µg/mL.

Source: patent publication US20150374673A1, “Combination Therapy for the Treatment of Nosocomial Pneumonia” (priority 2013, published 2015)
